One assay concerns C2C12 myoblasts. Description: C2C12 myoblast differentiation. The note with it: C2C12, 30 μM myriocin vs DMSO. The assay is classed as cell-based, mouse. The procedure: (§1) Cell culture and cell transfection. The C2C12 mouse myoblast cell line was obtained from the American Type Culture Collection (CRL-1772™). C2C12 cells or clones were cultured in growth medium consisting of Dulbecco's modified Eagle's medium (Gibco, 41966-029), 20% Fetal Bovine Serum (Gibco, 10270-106) and 100 U/mL penicillin and […] streptomycin (Gibco, 15140-122). To induce differentiation, FBS was substituted with 2% horse serum (Gibco, 16050-122). Trypsin-EDTA 0.05% (GIBCO, 25300-062) was used to detach cells. Human skeletal muscle cells were obtained from Lonza (SkMC, #CC-2561) and cultured in growth medium consisting of DMEM/F12 (Gibco, 10565018), 20% Fetal Bovine Serum (Gibco, 10270-106) and 100 U/mL penicillin and […] streptomycin (Gibco, 15140-122). To induce differentiation, FBS was reduced to 2% and kept in culture. All cells were maintained at 37° C. with 5% CO2. Cell transfections were done using TransiT (Mirus) according to the manufacturer's protocol with a 3:1 ratio of transfection agent to DNA. C2C12 cells were grown confluent, and 30 μM myriocin or DMSO was added and cells were kept in growth medium for another 3 days. Sptlc1 clones were plated to reach confluency simultaneously and were kept in growth medium for 3 days before using them for immunocytochemistry or RNA isolation. The concentration of myriocin in medium for all experiments was 30 μM. A stock solution of 20 mM myriocin in DMSO was used dissolve myriocin, and a corresponding volume of DMSO without myriocin was used as control.
RNA isolation and real time qPCR. RNA was isolated using the RNeasy Mini kit (Qiagen, 74106) and reverse transcribed with the High-Capacity-RNA-to-cDNA kit (Thermo Fisher, 4387406). Gene expression was measured by qPCR using the Power SybrGreen Master mix (Thermo Fisher, 4367659). All quantitative polymerase chain reaction (PCR) results were calculated relative to the mean of the housekeeping gene Gapdh. The average of two technical replicates was used for each biological data point.
Immunocytochemistry. C2C12 cells cultured on a sterilized cover slip in 6-well plates (Greiner bio-one, CELLSTAR, 657160) were fixed in Fixx solution (Thermo Scientific, 9990244) for 15 min and permeabilized in 0.1% Triton X-100 (Amresco, 0694) solution for 15 min at room temperature. Cells were blocked in 3% BSA for 1 h at room temperature to avoid unspecific antibody binding and then incubated with primary antibody over night at 4° C. with gentle shaking. […] The immunofluorescence images were acquired using either fluorescence or confocal microscopy. The myofusion index was calculated as the ratio of nuclei within myotubes to total nuclei. The myotube diameter was measured for 8 myotubes per image using ImageJ. Myotube area was calculated as the total area covered by myotubes.

The subject of another assay is human primary myoblasts. The assay can be described thus: Human primary myoblast differentiation. Type of assay: cell-based. Particulars: 30 μM myriocin vs DMSO. The procedure:
as §1, with “C2C12 cells were grown confluent, and 30 μM myriocin or DMSO was added and cells were kept in growth medium for another 3 days. Sptlc1 clones were plated to reach confluency simultaneously and were kept in growth medium for 3 days before using them for immunocytochemistry or RNA isolation. The concentration of myriocin in medium for all experiments was 30 μM. A stock solution of 20 mM myriocin in DMSO was used dissolve myriocin, and a corresponding volume of DMSO without myriocin was used as control.” left out
Immunocytochemistry. […] The immunofluorescence images were acquired using either fluorescence or confocal microscopy. The myofusion index was calculated as the ratio of nuclei within myotubes to total nuclei. The myotube diameter was measured for 8 myotubes per image using ImageJ. Myotube area was calculated as the total area covered by myotubes.

Assay [1] has as its system aged C57Bl/6JRj mice. Description: Ad libitum locomotion during 10 min in aged mice. The assay is classed as in vivo, mouse. The note with it: myriocin 0.4 mg/kg i.p. 3 times per week, 5 months. The method, then: FIG. 9. Sphingolipid depletion protects against frailty phenotypes. (a) Distance moved in 10 mins. (b) Average velocity during 10 minutes of observation. (c) Glucose tolerance test. (d) Time exploring familiar and novel objects. (e) Recognition index. Aged (18-month-old) C57BL/6JRj mice were treated with intraperitoneal injections of myriocin (MYR) for 5 months @ 0.4 mg/kg/3 times per week.
Human frailty syndrome is characterized by weakness, decreased walking speed, exhaustion, weight loss, and low physical activity. […] Frailty predicts falls in older people. […] In object recognition test, myriocin treated mice spent more exploring both the familiar object and novel object as compared to their DMSO treated counterparts (FIG. 9d). Although this could be partly attributable to the higher physical activity of myriocin treated mice, the treated mice were more interested in the novel than familiar object as compared to untreated mice.

Assay [2] relates to aged C57Bl/6JRj mice. The assay can be described thus: Novel object recognition in aged mice. Type of assay: in vivo, mouse. The method, then:
Novel Object Recognition. The novel object recognition task is used to assess recognition memory of mice. It is based on the natural tendency of rodents to explore a novel object by comparison to a familiar one. A habituation phase is realized to familiarize animals to the arena context. 24 hours later, during the acquisition phase (learning phase), two identical objects are placed in the arena and presented to the mouse. During the retention phase (3 hours following the acquisition phase), one of the two familiar objects is replaced by a novel one. Measures of duration and number of exploration for each object are realized, during both acquisition and retention phases, and a Recognition Index is calculated.

Assay [3] concerns skeletal muscle of aged mice. Description: Proteostasis (A11 staining) in skeletal muscle of aged mice. The assay is classed as in vivo, mouse. The procedure: FIG. 17. […] Values are expressed as mean±s.e.m. *P≤0.05. Differences between two groups were assessed using Student's two-tailed t-tests (error bars: 95% confidence intervals).

Experimental findings from US20220288004A1, “TREATMENT AND PREVENTION OF AGING RELATED-DISEASE AND/OR AGING BY THE INHIBITION OF SPHINGOLIPIDS” (ECOLE POLYTECHNIQUE FEDERALE DE LAUSANNE (EPFL), priority 2019, published 2022) are described below.

“Also recorded” adds a separate entry of the source.

With `CCCCCCC(=O)CCCCCCC=CCC(O)C(O)C(N)(CO)C(=O)O` (stereo not drawn) [myriocin, 2-Amino-3,4-dihydroxy-2-(hydroxymethyl)-14-oxoicos-6-enoic acid], in the assay with C2C12 myoblasts, the fusion index result is recorded as “greater”; the myoblast differentiation entry is “accelerated”; the “myogenic transcript signature (Myog, Myh4, Myh1)” value is on record as “upregulation”; the myotube area entry was “greater”. Moreover, in the assay with human primary myoblasts, the human myoblast differentiation result was “accelerated” and the myotube area entry is recorded as “larger”. In the assay on aged C57Bl/6JRj mice [1], the “ad libitum walking speed (average velocity during 10 minutes)” value is listed as “increased” and the “distance travelled ad libitum during 10 min” value is listed as “longer”. The recognition index result in the assay with aged C57Bl/6JRj mice [2] (myriocin 5 months vs DMSO) was “higher”. Further, the “time exploring novel object relative to familiar object” value with aged C57Bl/6JRj mice [2] (myriocin 5 months vs DMSO treated counterparts) is given as “more”. The “proteostasis in skeletal muscle” value in assay [3] (aged mice treated with myriocin) is reported as “improves proteostasis; also recorded: promoted proteostasis”. Further, the “amyloid beta aggregates (A11 staining)” value in assay [3] (skeletal muscle of aged mice treated with myriocin) is reported as “cleared amyloid beta aggregates”.
